US20240002375A1, “2-(INDAZOL-5-YL)-6-(PIPERIDIN-4-YL)-1,7-NAPHTHYRIDINE DERIVATIVES AND RELATED COMPOUNDS AS MODULATORS FOR SPLICING NUCLEIC ACIDS AND FOR THE TRE” (REMIX THERAPEUTICS INC., priority 2020, published 2024)

How the values were obtained:
Type in all cases: cell-based
HTT mRNA = assay: Splicing assay (RT-qPCR) of HTT mRNA alternative junction (AJ) and canonical junction (CJ); details: A673 or K562 cells, 24 hours; for IC50: decrease in CJ mRNA, read-out: HTT CJ IC50; for AC50: increase in AJ mRNA, read-out: HTT AJ AC50
Method in brief: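 HTT splice switching read as formation of an alternative-exon junction (AJ) versus the canonical junction (CJ) by one-step RT-qPCR on cell lysates, with GAPDH/GUSB housekeeping normalisation in K562 and PPIA in A673. Compounds: 11-point 3-fold series up to 10 uM, ≤0.25% DMSO, 24 h at 37 °C.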

HTT CJ mRNA = assay: Gene panel canonical junction qPCR splicing assay, HTT; details: Table 4, read-out: HTT IC50 (decrease in CJ mRNA levels)
Method in brief: (§1)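 A673 or K562 cells treated with compound; canonical-junction mRNA measured by RT-qPCR with junction-spanning primer/probe sets, normalized to GAPDH, GUSB or PPIA and DMSO (2^−ΔΔCt). IC50 for CJ decrease from 4-parameter logistic fit of percentage response.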

SMN2 CJ mRNA = assay: Gene panel canonical junction qPCR splicing assay, SMN2; details: Table 4, read-out: SMN2 IC50 (decrease in CJ mRNA levels)
Method in brief: as §1

Target C CJ mRNA = assay: Gene panel canonical junction qPCR splicing assay, Target C; details: Table 4, read-out: Target C IC50 (decrease in CJ mRNA levels)
Method in brief: as §1

SMILES | IC50 (HTT mRNA) | IC50 (HTT CJ mRNA) | IC50 (SMN2 CJ mRNA) | IC50 (Target C CJ mRNA) | AC50 (HTT mRNA)
Cc1nc(-c2ccc3nc(N4CCC(NC(C)(C)C)C4)ccc3n2)cc2cn(C)nc12 (centres unmarked) [Compound 208] | > 10000 nM | > 10000 nM | 1000 to 10000 nM | > 10000 nM | > 10000 nM
Cc1nc2cc(O)c(-c3ccc4nc(N5CC[C@H](NC(C)(C)C)C5)ccc4n3)cc2o1 [Compound 209] | < 100 nM | < 100 nM | < 100 nM | < 100 nM | < 100 nM
Cc1nc2cc(O)c(-c3ccc4nc(N5CC[C@@H](NC(C)(C)C)C5)ccc4n3)cc2o1 [Compound 210] | < 100 nM | < 100 nM | < 100 nM | 1000 to 10000 nM | < 100 nM
Cn1cc2cc(-c3cc4ccc(N5CCC(NC(C)(C)C)C5)nc4cn3)c(O)cc2n1 (centres unmarked) [Compound 218, 5-{2-[3-(tert-butylamino)pyrrolidin-1-yl]-1,7-naphthyridin-6-yl}-2-methylindazol-6-ol] | > 10000 nM | > 10000 nM | 100 to 1000 nM | > 10000 nM | > 10000 nM
Cc1nc2cc(O)c(-c3ccc4nc(N5CCC(N)C5)ccc4n3)cc2o1 (centres unmarked) [Compound 234, 6-[6-(3-aminopyrrolidin-1-yl)-1,5-naphthyridin-2-yl]-2-methyl-1,3-benzoxazol-5-ol] | 100 to 1000 nM | 100 to 1000 nM | < 100 nM | 100 to 1000 nM | < 100 nM
Cc1nc2c(C)c(O)c(-c3ccc4nc(N5CCC(NC6CCC6)C5)ccc4n3)cc2o1 (centres unmarked) [Compound 235, 6-{6-[3-(cyclobutylamino)pyrrolidin-1-yl]-1,5-naphthyridin-2-yl}-2,4-dimethyl-1,3-benzoxazol-5-ol] | < 100 nM | < 100 nM | < 100 nM | < 100 nM | < 100 nM

Further lines, with some results ahead:

IC50 (HTT mRNA) | IC50 (HTT CJ mRNA) | IC50 (SMN2 CJ mRNA) | IC50 (Target C CJ mRNA) | SMILES | AC50 (HTT mRNA)
1000 to 10000 nM | 1000 to 10000 nM | 1000 to 10000 nM | 1000 to 10000 nM | Cn1cc2nc(-c3ccc4nc(C5CCNCC5)ccc4n3)c(F)cc2n1 [Compound 205, 2-{6-fluoro-2-methylpyrazolo[4,3-b]pyridin-5-yl}-6-(piperidin-4-yl)-1,5-naphthyridine] | 1000 to 10000 nM
1000 to 10000 nM | 1000 to 10000 nM | 1000 to 10000 nM | 1000 to 10000 nM | Cc1cn2cc(-c3ccc4nc(N5CCC(NC(C)(C)C)C5)ccc4n3)nc(C)c2n1 (centres unmarked) [Compound 206] | 1000 to 10000 nM
1000 to 10000 nM | 1000 to 10000 nM | 1000 to 10000 nM | 1000 to 10000 nM | Cn1cc2nc(-c3ccc4nc(N5CCC(NC(C)(C)C)C5)ccc4n3)c(F)cc2n1 (centres unmarked) [Compound 207] | 1000 to 10000 nM
< 100 nM | < 100 nM | < 100 nM | < 100 nM | Cn1cc2cc(-c3ccc4nc(N5CCC(N)C5)ccc4n3)c(O)c(F)c2n1 (centres unmarked) [Compound 238, 5-[6-(3-aminopyrrolidin-1-yl)-1,5-naphthyridin-2-yl]-7-fluoro-2-methylindazol-6-ol] | < 100 nM
< 100 nM | < 100 nM | < 100 nM | < 100 nM | Cn1cc2cc(-c3ccc4cc(C5CCNCC5)ccc4n3)c(O)c(F)c2n1 [Compound 241, 7-fluoro-2-methyl-5-[6-(piperidin-4-yl)quinolin-2-yl]indazol-6-ol] | < 100 nM
< 100 nM | < 100 nM | < 100 nM | < 100 nM | Cn1cc2cc(-c3ccc4nc(N5CC[C@@H](N[C@H]6C[C@H](F)C6)C5)ccc4n3)c(O)cc2n1 [Compound 246] | < 100 nM
< 100 nM | < 100 nM | < 100 nM | 100 to 1000 nM | Cn1cc2cc(-c3ccc4nc(N5CC[C@H](N[C@H]6C[C@H](F)C6)C5)ccc4n3)c(O)cc2n1 [Compound 247] | 100 to 1000 nM
